{
  "source": "patent US11235001B2",
  "about": "“RUNX inhibitor” (KYOTO UNIVERSITY, priority 2016, dated 2022)",
  "key": {"[1]": {"test_system": "SU-Ph2 cells", "test": "Cell growth inhibition assay, SU-Ph2 cells", "format": "cell-based, human", "details": "SU-Ph2, 48 hours"}, "[2]": {"test_system": "RUNX family (RUNX1, RUNX2 and RUNX3)", "test": "Gene expression microarray in MV4-11 cells vs RUNX family knockdown", "format": "cell-based, human", "details": "1 μM, 6 hours, top 500 up- and down-regulated genes"}, "[3]": {"test_system": "A549 cells", "test": "Xenograft lung cancer mouse model (A549)", "format": "in vivo"}, "[4]": {"test_system": "BCR-ABL gene", "test": "qRT-PCR of BCR-ABL gene in CML and PhALL cells", "format": "cell-based, human", "details": "3 μM or 1 μM, 6 hours", "protocol": "(§1) A total RNA was isolated with RNeasy mini kit (Qiagen) and reverse transcribed with Reverse script kit (TOYOBO) to generate cDNA. Real-time quantitative polymerase chain reaction (PCR) was carried out with 7500 Real-Time PCR System (Applied Biosystems) according to the manufacturer's instructions. Results were normalized to GAPDH levels. Relative expression levels were calculated using the 2-ΔΔCt method.\nTo BV173 cells, MYL cells, SU-Ph2 cells, and SU/SR cells, 3 μM or 1 μM of Chb-M′ was administered. After 6 hours, a total RNA was extracted from the cells, and then subjected to qRT-PCR (see the above-described “Real-time quantitative PCR (qRT-PCR)”) to quantify the expression levels of BCR-ABL gene. As a control, DMSO was administered. In the figures, the expression levels are shown as values relative to the mRNA level of p210BCR-ABL or the mRNA level of p190BCR-ABL in the DMSO (control)-administered group."}, "[5]": {"test_system": "MLL-ENL leukemia cells", "test": "Homing assay of MLL-ENL leukemia cells", "format": "in vivo, mouse", "details": "B6 mice, 320 μg/kg, 6 times over 2 weeks; 24 hours after cell injection"}, "[6]": {"test_system": "SOS1", "test": "qRT-PCR of SOS1 in MKN45 gastric cancer cells", "format": "cell-based, human", "details": "MKN45, 1 μM, 6 hours", "protocol": "as §1\nTo the MKN45 gastric cancer cell line, 1 μM of Chb-M′ was administered. After 6 hours, the mRNA level of SOS1 was evaluated by RT-PCR method using qRT-PCR (see the above-described “Real-time quantitative PCR (qRT-PCR)”). As a control, DMSO was administered. In the figure, the mRNA expression level of SOS1 is shown as a value relative to that in the DMSO-treated group."}, "[7]": {"test_system": "A549", "test": "Cell viability, lung adenocarcinoma A549", "format": "cell-based, human", "details": "A549 (EGFR wild-type p53 wild-type), 48 hours"}, "[8]": {"test_system": "GATA2, E2F5, and AR", "test": "qRT-PCR of prostatic adenocarcinoma-related factors in PC-3", "format": "cell-based, human", "details": "PC-3, 5 μM, 6 hours", "protocol": "as §1\nTo prostatic adenocarcinoma cell line PC-3, 5 μM Chb-M′ was administered. After 6 hours, the mRNA levels of GATA2, E2F5, and AR (androgen receptors), which are important genes for proliferation of prostate cancer cells, were evaluated by qRT-PCR (see the above-described “Real-time quantitative PCR (qRT-PCR)”). As a control, DMSO was administered. In the figure, the mRNA expression levels of GATA2, E2F5, and AR are shown as values relative to those in the DMSO-treated group. As evident from FIG. 45, the expressions of GATA2, E2F5, and AR were suppressed by Chb-M′ at transcriptional levels."}, "[9]": {"test_system": "ROR1 and ROR2", "test": "Western blotting of ROR1 and ROR2 in DAOY", "format": "cell-based, human", "details": "1 μM, 24 hours", "protocol": "Cells were washed twice with ice cold phosphate-buffered saline (PBS) and harvested in protein lysis buffer [50 mM Tris (pH 7.4), 100 mM NaCl, 0.1 mM EDTA, 1 mM phenylmethylsulfonyl fluoride, 1 mM β-glycerophosphate, 2.5 mM sodium pyrophosphate, 1 mM Na3VO4, lx protease inhibitor (Roche) and PhosSTOP (Roche)]. Whole cell extracts were separated by SDS-polyacrylamide gel electrophoresis (SDS-PAGE) and electrotransferred onto polyvinylidene difluoride membranes. Membranes were probed with the following antibodies: anti-Ctip1 antibody (Abcam, ab19487), anti-TRIM24 antibody (Bethyl Laboratories, Inc), anti-RUNX1 antibody (A-2), anti-GAPDH (FL-335), anti-p21 (C-19), anti-Bax (N-20) antibodies (Santa Cruz Biotechnology, Inc.), anti-RUNX2, anti-RUNX3, anti-p53 antibodies (Cell Signaling Technology), anti-CBFβ antibody (FL-182, Santa Cruz Biotechnology, Inc.), anti-cleaved caspase-3 antibody (5A1E, Cell Signaling Technology), anti-PARP antibody (46D11, Cell Signaling Technology). […] Blots were detected using Chemi-Lumi One Super (nacalai tesque, Inc.) and ChemiDoc™ XRS+ Imager (Bio-Rad Laboratories, Inc.), as recommended by the manufacturers. Protein levels were quantified with Image Lab Software (Bio-Rad Laboratories, Inc.).\nTo DAOY cells, 1 μM Chb-M′ was administered. […] The expression of ROR1 was too weak to be detected."}, "[10]": {"test_system": "Kasumi-1", "details": "Kasumi-1, p53mut(+); for IC50: 48 hours"}, "[11]": {"test_system": "medulloblastoma cell line DAOY", "details": "DAOY (SHH, TP53-mutated), 48 hours"}, "[12]": {"test_system": "UF1 (p53Null)"}, "[13]": {"test": "Half-life in mouse", "details": "in vivo"}},
  "note": "Where two headings read alike, the source gives them in different places.",
  "data": [
    {"smiles": "CN(C)CCCNC(=O)c1cc(NC(=O)c2cc(NC(=O)c3cc(NC(=O)c4cc(NC(=O)CCCNC(=O)c5nc(NC(=O)c6nc(NC(=O)c7cc(NC(=O)c8nc(NC(=O)CCNC(=O)CCCc9ccc(N(CCCl)CCCl)cc9)cn8C)cn7C)cn6C)cn5C)cn4C)cn3C)cn2C)cn1C", "note": "[Chb-M′]", "values": [
      {"measurement": "IC50 compared with that of imatinib", "setting": "[1]", "value": "lower IC50 values"},
      {"measurement": "Gene expression pattern vs cells with all RUNX family members knockdown", "setting": "[2]", "value": "significantly correlated"},
      {"measurement": "Effect on the lung cancer model", "setting": "[3]; A549 xenograft", "value": "inhibited the growth"},
      {"measurement": "H&E staining of lung tissue (lung cancer cells in pulmonary alveoli)", "setting": "[3]; day 14 after transplantation", "value": "rather diminished"},
      {"measurement": "Brightness of luciferase (IVIS), lung", "setting": "[3]; day 14 after transplantation, after 2 administrations", "value": "rather weakened"},
      {"measurement": "Bioluminescence signal intensity vs DMSO or gefitinib", "setting": "[3]; day 21 after transplantation", "value": "far lower"},
      {"measurement": "Brightness of luciferase (IVIS), lung", "setting": "[3]; day 21 after transplantation, after total 4 administrations", "value": "further weakened"},
      {"measurement": "Lengthening of overall survival periods", "setting": "[3]; mice with gefitinib-resistant A549, 320 μg/kg IV twice a week from day 7", "value": "about 2 times"},
      {"measurement": "mRNA level of p210BCR-ABL", "setting": "[4]; BV173 cells", "value": "decreased"},
      {"measurement": "mRNA level of p210BCR-ABL", "setting": "[4]; MYL cells", "value": "decreased"},
      {"measurement": "mRNA level of p190BCR-ABL", "setting": "[4]; SU-Ph2 cells", "value": "decreased"},
      {"measurement": "mRNA level of p190BCR-ABL", "setting": "[4]; SU/SR cells", "value": "decreased"},
      {"measurement": "Number of MLL-ENL cells in bone marrow vs control group", "setting": "[5]", "value": "smaller"},
      {"measurement": "Number of leukemia cells in spleen", "setting": "[5]", "value": "increased"},
      {"measurement": "Expression of SOS1 (mRNA)", "setting": "[6]", "value": "suppressed"},
      {"measurement": "IC50 compared with the EGFR inhibitor (gefitinib)", "setting": "[7]", "value": "lower IC50 values"},
      {"measurement": "Expressions of GATA2, E2F5, and AR (mRNA)", "setting": "[8]", "value": "suppressed"},
      {"measurement": "Expression of ROR2 at a protein level", "setting": "[9]", "value": "suppressed"},
      {"measurement": "CI (Fa = 0.5)", "setting": "[10]; concomitant use of Chb-M′ and PRIMA-1, Chou-Talalay, CI<1 synergism", "value": 0.156},
      {"measurement": "IC50", "setting": "[10]; read-out: IC50 (μM) of Chb-M′ in concomitant use with PRIMA-1 (5 μM), with 5 μM PRIMA-1", "value": 0.359, "unit": "µM"},
      {"measurement": "IC50", "setting": "[10]; read-out: IC50 (μM) of Chb-M′ single agent administration", "value": "> 100", "unit": "µM"},
      {"measurement": "IC50", "setting": "[11]", "value": 0.812, "unit": "µM"},
      {"measurement": "IC50", "setting": "[12]; culture time 48 hours", "value": 1.75, "unit": "µM"},
      {"measurement": "IC50", "setting": "[12]; culture time 72 hours", "value": 0.674, "unit": "µM"},
      {"measurement": "half-life", "setting": "[13]", "value": "~5", "unit": "h"}
    ]}
  ]
}
